According to PubChem BioAssay (NCI):
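96-well plates; 48 h exposure; 5 concentrations. Endpoints by linear interpolation between flanking doses. Not reached: highest tested concentration assigned. TGI: total growth inhibition.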

Columns and labels:
Assay in all cases: growth of human tumour cells (NCI), 48 h
786-0 renal = test system: 786-0 renal
A498 renal = test system: A498 renal
A549 NSCLC = test system: A549 NSCLC
ACHN renal = test system: ACHN renal
BT-549 breast = test system: BT-549 breast
CAKI-1 renal = test system: CAKI-1 renal
COLO 205 colon = test system: COLO 205 colon
DU-145 prostate = test system: DU-145 prostate
EKVX NSCLC = test system: EKVX NSCLC
HCT-116 colon = test system: HCT-116 colon
HCT-15 colon = test system: HCT-15 colon
HL-60(TB) leukemia = test system: HL-60(TB) leukemia
HOP-62 NSCLC = test system: HOP-62 NSCLC
HOP-92 NSCLC = test system: HOP-92 NSCLC
HS 578T breast = test system: HS 578T breast
HT29 colon = test system: HT29 colon
IGROV1 ovarian = test system: IGROV1 ovarian
K-562 leukemia = test system: K-562 leukemia
KM12 colon = test system: KM12 colon
LOX IMVI melanoma = test system: LOX IMVI melanoma
M14 melanoma = test system: M14 melanoma
MCF7 breast = test system: MCF7 breast
MDA-MB-231 breast = test system: MDA-MB-231 breast
MDA-MB-435 = test system: MDA-MB-435
MDA-N = test system: MDA-N
MOLT-4 leukemia = test system: MOLT-4 leukemia
NCI-H226 lung = test system: NCI-H226 lung
NCI-H23 lung = test system: NCI-H23 lung
NCI-H460 lung = test system: NCI-H460 lung
NCI-H522 lung = test system: NCI-H522 lung
NCI/ADR-RES ovarian = test system: NCI/ADR-RES ovarian
OVCAR-3 ovarian = test system: OVCAR-3 ovarian
OVCAR-4 ovarian = test system: OVCAR-4 ovarian
OVCAR-5 ovarian = test system: OVCAR-5 ovarian
OVCAR-8 ovarian = test system: OVCAR-8 ovarian
PC-3 prostate = test system: PC-3 prostate
RPMI-8226 leukemia = test system: RPMI-8226 leukemia
RXF 393 renal = test system: RXF 393 renal
SF-268 CNS = test system: SF-268 CNS
SF-295 CNS = test system: SF-295 CNS
SF-539 CNS = test system: SF-539 CNS
SK-MEL-28 melanoma = test system: SK-MEL-28 melanoma
SK-MEL-5 melanoma = test system: SK-MEL-5 melanoma
SK-OV-3 ovarian = test system: SK-OV-3 ovarian
SN12C renal = test system: SN12C renal
SNB-19 CNS = test system: SNB-19 CNS
SNB-75 CNS = test system: SNB-75 CNS
SR leukemia = test system: SR leukemia
SW-620 colon = test system: SW-620 colon
T-47D breast = test system: T-47D breast
TK-10 renal = test system: TK-10 renal
U251 CNS = test system: U251 CNS
UACC-62 melanoma = test system: UACC-62 melanoma
UO-31 renal = test system: UO-31 renal

Measured: TGI

CC(C)CC(NC=O)C(=O)NC(Cc1ccccc1)NC(=O)CNC(=O)C(C)NC(=O)C(N)Cc1ccc(O)cc1 (centres undefined)
> 100 µM: all assays above
